{"source": "patent US12408664B2", "about": "(priority 2018, dated 2025)", "key": {"R. solani [1]": {"system": "R. solani", "experiment": "New inoculants in MEB liquid culture amended with calcium propionate", "assay_type": "cell-based, Rhizoctonia solani", "details": "MEB with 1, 2, 5 and 10% (w/v) calcium propionate; five days", "protocol": "(§1) To examine the effective dose range in liquid culture, malt extract broth (MEB) was prepared and amended with calcium propionate at concentrations of 1, 2, 5 and 10% (w/v). Unamended MEB was used as a control for growth. Each of the four microbes identified in Example 1 was tested twice by inoculating MEB using agarose plugs from luxuriant cultures. Growth was observed over five days. In each microbe examined, visible growth in liquid culture was apparent by day 2 following inoculation with well-established growth by 4 days in the absence of calcium propionate."}, "G. graminis": {"system": "G. graminis", "experiment": "New inoculants in MEB liquid culture amended with calcium propionate", "assay_type": "cell-based, Gaeumannomyces graminis", "details": "MEB with 1, 2, 5 and 10% (w/v) calcium propionate; five days", "protocol": "as §1"}, "R. solani [2]": {"system": "R. solani", "experiment": "Established liquid cultures, two days calcium propionate then washout", "assay_type": "cell-based, Rhizoctonia solani", "protocol": "To further examine the impact of calcium propionate on established liquid cultures, MEB was inoculated by plug transfer and cultures were allowed to grow for one to six days. Following this, calcium propionate was added to active cultures to a final concentration of 1%, 2%, or 5% (w/v); control cultures had no calcium propionate. Calcium propionate was then added to established one to six day old cultures and cultures were allowed to grow in the presence of calcium propionate for two days, after which, calcium propionate was washed out and cultures were returned to MEB only. Growth following calcium propionate washout was recorded over 14 days."}, "turfgrass": {"system": "turfgrass", "experiment": "Golf Course 2: appearance of treated turfgrass", "assay_type": "in vivo, Agrostis capillaris", "details": "3-4 grams per square meter every 10 days; 10 days following initial application", "protocol": "Calcium propionate was dissolved in water to form a 5% (w/v) solution. […] The turfgrass was comprised primarily of Agrostis capillaris. The calcium propionate 5% (w/v) solution was sprayed onto the turfgrass at a concentration of 3-4 grams per square meter every 10 days."}, "R. solani [3]": {"system": "R. solani", "experiment": "Zone of inhibition assay on PDA plates", "assay_type": "cell-based, Rhizoctonia solani", "protocol": "To test the efficacy of calcium propionate (CaP) against the four microbes listed above, zone of inhibition assays were performed. Wells were bored in potato dextrose agarose (PDA) plates then amended with […] calcium propionate at concentrations of 0.1%, 0.2%, 0.3%, 0.4%, and 0.5% (w/v). Control plates were amended with […] dH2O. Plates were inoculated using plugs from active cultures. Growth patterns were observed over seven days. Representative results with M. poae are shown at three days following inoculation (FIG. 1A) and seven days following inoculation (FIG. 1B).\nThe zone of inhibition assays described in Example 1 were performed using calcium propionate doses of 0.5%, 1%, 2%, 3%, and 4% (w/v). Growth diameter was recorded at 2, 5, and 7 days post inoculation. The data shown in Table 1 represent the average±standard deviation (SD) of two replicate plates for each strain tested.\nZone of inhibition assays using PDA plates amended with 5-12% (w/v) calcium propionate were performed as described above. As a control, plates were amended with a composition comprising propiconazole, a commonly used fungicidal treatment for microbe infection of turfgrass, sold under the trademark Banner MaxxII®. Growth diameter was recorded for 13 days post inoculation. The data shown in Table 2 represent the average±standard deviation (SD) of three replicate plates for each strain tested. Inoculants of S. homoeocarpa, M. poae, and R. solani generally grow to luxuriant culture, covering the entire surface of the plate (8.5 cm growth) in 7 days."}, "M. poae [4]": {"system": "M. poae", "assay_type": "cell-based, Magnaporthe poae"}, "R. solani [5]": {"system": "R. solani", "experiment": "Plug transfer to PDA plates without calcium propionate (fungistatic or fungicidal)", "assay_type": "cell-based, Rhizoctonia solani"}, "M. poae [6]": {"system": "M. poae", "assay_type": "cell-based, Magnaporthe poae", "remark": "listed apart in the source"}, "M. poae [7]": {"system": "M. poae", "assay_type": "cell-based, Magnaporthe poae", "details": "MEB with 1, 2, 5 and 10% (w/v) calcium propionate; five days"}, "M. poae [8]": {"system": "M. poae", "assay_type": "cell-based, Magnaporthe poae", "remark": "listed apart in the source"}, "S. homoeocarpa": {"system": "S. homoeocarpa", "experiment": "Disrupted well-established culture transferred to amended MEB", "assay_type": "cell-based, Scerotinia homoeocarpa", "details": "MEB with 1%, 2%, 5% or 10% (w/v) calcium propionate; five days", "from_the_text": "To examine the effect of calcium propionate on well-established cultures of S. homoeocarpa and M. poae, MEB was inoculated with agarose plugs as previously described. Cultures were allowed to grow for 10 days to establish a robust hyphal mat. After 10 days, hyphal mats were disrupted by pipetting to break up mycelium (disrupted culture). One milliliter of disrupted culture was transferred to MEB amended with 1%, 2%, 5%, or 10% (w/v) calcium propionate. MEB without calcium propionate was used as a control. Cultures were allowed to grow for five days following inoculation with disrupted mycelium."}, "[9]": {"details": "1%, 2% or 5% (w/v), established one to six day old cultures, two days"}, "[10]": {"details": "all concentrations tested (1-5% w/v)"}}, "note": "Where two headings read alike, the source gives them in different places."}
{"smiles": "CCC(=O)[O-].CCC(=O)[O-].[Ca+2]", "note": "[calcium propionate]", "values": [{"measurement": "growth in liquid culture, R. solani", "setting": "R. solani [1]", "result": "no growth was observed"}, {"measurement": "growth in liquid culture, G. graminis", "setting": "G. graminis", "result": "no growth was observed"}, {"measurement": "growth while calcium propionate was present, R. solani", "setting": "R. solani [2]; [9]", "result": "growth was inhibited"}, {"measurement": "growth inhibition over two weeks after removal, R. solani", "setting": "R. solani [2]; [10]", "result": "some minor growth inhibition"}, {"measurement": "growth three days following removal of calcium propionate, R. solani", "setting": "R. solani [2]; concentrations examined (1-5% w/v)", "result": "robust growth was observed"}, {"measurement": "appearance of the turfgrass", "setting": "turfgrass", "result": "appeared healthy"}, {"measurement": "Growth, R. solani", "setting": "R. solani [3]; 5-12% (w/v) calcium propionate, day 2, average ± SD of three plates", "result": "2.6 ± 0.3", "unit": "cm"}, {"measurement": "Growth, R. solani", "setting": "R. solani [3]; 5-12% (w/v) calcium propionate, day 3, average ± SD of three plates", "result": "4.3 ± 0.3", "unit": "cm"}, {"measurement": "Growth, R. solani", "setting": "R. solani [3]; 5-12% (w/v) calcium propionate, day 6, average ± SD of three plates", "result": "8.5 ± 0", "unit": "cm"}, {"measurement": "Growth, R. solani", "setting": "R. solani [3]; 5-12% (w/v) calcium propionate, day 7, average ± SD of three plates", "result": "8.5 ± 0", "unit": "cm"}, {"measurement": "Growth, R. solani", "setting": "R. solani [3]; 5-12% (w/v) calcium propionate, day 10, average ± SD of three plates", "result": "8.5 ± 0", "unit": "cm"}, {"measurement": "Growth, R. solani", "setting": "R. solani [3]; 5-12% (w/v) calcium propionate, day 13, average ± SD of three plates", "result": "8.5 ± 0", "unit": "cm"}, {"measurement": "inhibition of R. solani growth", "setting": "R. solani [3]; calcium propionate concentrations up to 12% (w/v)", "result": "no inhibition"}, {"measurement": "growth inhibition, R. solani", "setting": "R. solani [3]; wells 0.1-0.5% (w/v) calcium propionate, observed over seven days", "result": "no growth inhibition was observed"}, {"measurement": "growth inhibition, R. solani", "setting": "R. solani [3]; wells 0.5-4% (w/v) calcium propionate", "result": "uninhibited"}, {"measurement": "Growth, R. solani", "setting": "R. solani [3]; wells 0.5-4% (w/v) calcium propionate, day 2, average ± SD of two plates", "result": "3.3 ± 0.4", "unit": "cm"}, {"measurement": "Growth, R. solani", "setting": "R. solani [3]; wells 0.5-4% (w/v) calcium propionate, day 5, average ± SD of two plates", "result": "8.5 ± 0", "unit": "cm"}, {"measurement": "Growth, R. solani", "setting": "R. solani [3]; wells 0.5-4% (w/v) calcium propionate, day 7, average ± SD of two plates", "result": "8.5 ± 0", "unit": "cm"}, {"measurement": "growth recovery over 14 days after removal, M. poae", "setting": "M. poae [4]; 1% or 2% (w/v) calcium propionate", "result": "varying degrees of growth recovery"}, {"measurement": "growth while calcium propionate was present, M. poae", "setting": "M. poae [4]; [9]", "result": "growth was inhibited"}, {"measurement": "growth recovery over 14 days after removal, M. poae", "setting": "M. poae [4]; 5% (w/v) treatment", "result": "no growth recovery was observed"}, {"measurement": "growth three days following removal of calcium propionate, M. poae", "setting": "M. poae [4]; [10]", "result": "continued growth inhibition"}, {"measurement": "concentration required to achieve a fungicidal effect on R. solani", "setting": "R. solani [5]", "result": "10-12 % (w/v)"}, {"measurement": "fungistatic or fungicidal effect, R. solani", "setting": "R. solani [5]; 5% (w/v) calcium propionate", "result": "fungistatic rather than fungicidal"}, {"measurement": "growth on unamended PDA after plug transfer, R. solani", "setting": "R. solani [5]; plugs from 5% and 7.5% (w/v) calcium propionate plates, 6-7 days following transfer", "result": "luxuriant growth"}, {"measurement": "growth on unamended PDA after plug transfer, R. solani", "setting": "R. solani [5]; plugs from 10% and 12% (w/v) calcium propionate plates", "result": "did not grow"}, {"measurement": "fungistatic or fungicidal effect, M. poae", "setting": "M. poae [6]; 5% (w/v) calcium propionate", "result": "fungicidal effect"}, {"measurement": "growth on unamended PDA after plug transfer, M. poae", "setting": "M. poae [6]; plugs initially grown on 5, 7.5, 10 or 12% (w/v) calcium propionate, observed 14 days", "result": "No growth was seen"}, {"measurement": "growth in liquid culture, M. poae", "setting": "M. poae [7]", "result": "no growth was observed"}, {"measurement": "Growth, M. Poae", "setting": "M. poae [8]; PDA with 5% (w/v) calcium propionate, day 4, single plate", "result": 0, "unit": "cm"}, {"measurement": "Growth, M. Poae", "setting": "M. poae [8]; PDA with 5% (w/v) calcium propionate, day 5, single plate", "result": 0, "unit": "cm"}, {"measurement": "Growth, M. Poae", "setting": "M. poae [8]; PDA with 5% (w/v) calcium propionate, day 8, single plate", "result": 0, "unit": "cm"}, {"measurement": "Growth, M. Poae", "setting": "M. poae [8]; PDA with 5% (w/v) calcium propionate, day 11, single plate", "result": 0, "unit": "cm"}, {"measurement": "Growth, M. Poae", "setting": "M. poae [8]; PDA with 5% (w/v) calcium propionate, day 15, single plate", "result": 0, "unit": "cm"}, {"measurement": "Growth, M. Poae", "setting": "M. poae [8]; PDA with 7.5% (w/v) calcium propionate, day 4, single plate", "result": 0, "unit": "cm"}, {"measurement": "Growth, M. Poae", "setting": "M. poae [8]; PDA with 7.5% (w/v) calcium propionate, day 5, single plate", "result": 0, "unit": "cm"}, {"measurement": "Growth, M. Poae", "setting": "M. poae [8]; PDA with 7.5% (w/v) calcium propionate, day 8, single plate", "result": 0, "unit": "cm"}, {"measurement": "Growth, M. Poae", "setting": "M. poae [8]; PDA with 7.5% (w/v) calcium propionate, day 11, single plate", "result": 0, "unit": "cm"}, {"measurement": "Growth, M. Poae", "setting": "M. poae [8]; PDA with 7.5% (w/v) calcium propionate, day 15, single plate", "result": 0, "unit": "cm"}, {"measurement": "Growth, M. Poae", "setting": "M. poae [8]; PDA with 10% (w/v) calcium propionate, day 4, single plate", "result": 0, "unit": "cm"}, {"measurement": "Growth, M. Poae", "setting": "M. poae [8]; PDA with 10% (w/v) calcium propionate, day 5, single plate", "result": 0, "unit": "cm"}, {"measurement": "Growth, M. Poae", "setting": "M. poae [8]; PDA with 10% (w/v) calcium propionate, day 8, single plate", "result": 0, "unit": "cm"}, {"measurement": "Growth, M. Poae", "setting": "M. poae [8]; PDA with 10% (w/v) calcium propionate, day 11, single plate", "result": 0, "unit": "cm"}, {"measurement": "Growth, M. Poae", "setting": "M. poae [8]; PDA with 10% (w/v) calcium propionate, day 15, single plate", "result": 0, "unit": "cm"}, {"measurement": "Growth, M. Poae", "setting": "M. poae [8]; PDA with 12% (w/v) calcium propionate, day 4, single plate", "result": 0, "unit": "cm"}, {"measurement": "Growth, M. Poae", "setting": "M. poae [8]; PDA with 12% (w/v) calcium propionate, day 5, single plate", "result": 0, "unit": "cm"}, {"measurement": "Growth, M. Poae", "setting": "M. poae [8]; PDA with 12% (w/v) calcium propionate, day 8, single plate", "result": 0, "unit": "cm"}, {"measurement": "Growth, M. Poae", "setting": "M. poae [8]; PDA with 12% (w/v) calcium propionate, day 11, single plate", "result": 0, "unit": "cm"}, {"measurement": "Growth, M. Poae", "setting": "M. poae [8]; PDA with 12% (w/v) calcium propionate, day 15, single plate", "result": 0, "unit": "cm"}, {"measurement": "Growth, M. Poae", "setting": "M. poae [8]; any of the concentrations tested (5, 7.5, 10, 12% w/v), 15 days", "result": "no growth"}, {"measurement": "growth of disrupted culture, S. homoeocarpa", "setting": "S. homoeocarpa", "result": "No growth was observed"}]}
